The results in this text go back to PMC5824918, “HMG-CoA reductase from Camphor Tulsi (Ocimum kilimandscharicum) regulated MVA dependent biosynthesis of diverse terpenoids in homologous and heterologous plant systems” (Scientific Reports, 2018).

The assay has as its system T1, OkHMGR.
T1 construct: gene HMGR; cDNA from leaf
Nature of the assay: spectrophotometric NADPH oxidation at […] nm, Lineweaver-Burk plot. The class given is biochemical, Ocimum kilimandscharicum. The note with it: 7.5 mM DTT, 150 mM potassium phosphate pH 7.0, 30 °C.

One may read the Km as the concentration of substrate that gives half-maximal velocity. Consider `CC(C)(COP(=O)(O)OP(=O)(O)OC[C@H]1O[C@@H](n2cnc3c(N)ncnc32)[C@H](O)[C@@H]1OP(=O)(O)O)[C@@H](O)C(=O)NCCC(=O)NCCSC(=O)C[C@@](C)(O)CC(=O)O` [HMG-CoA], for which the Km (co-substrate NADPH (3.0 mM in standard assay)) was 88 µM.

As for `NC(=O)C1=CN([C@@H]2O[C@H](COP(=O)(O)OP(=O)(O)OC[C@H]3O[C@@H](n4cnc5c(N)ncnc54)[C@H](OP(=O)(O)O)[C@@H]3O)[C@@H](O)[C@H]2O)C=CC1` [NADPH], the Km (co-substrate HMG-CoA (0.05 mM in standard assay)) turned out to be 903 µM.
